4 cell lines from the supplement of paper PMC10307832 can be followed below.

Holding throughout (test): relative viability (nuclei count vs DMSO), 5 days (fraction); higher = more cells survive
Compound in the experiment “Sulindac + Phenformin”: CC1=C(CC(=O)O)c2cc(F)ccc2/C1=C\c1ccc([S+](C)[O-])cc1 [Sulindac] + N=C(N)NC(=N)NCCc1ccccc1 [Phenformin] (partner 250 µM)
In a few lines: (§1)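 Lung cancer cell lines were pin-tool dosed in 1536-well plates on the day after seeding, with either a lone drug or a fixed anchor-drug dose plus five library-drug doses (not always all listed) in √10 steps. Nuclei were counted on 4× images after 5 days. Relative viability is the ratio of treated-well to vehicle-well nuclei counts, with each value a median of duplicate plates.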

Compound in experiment [1]: CN[C@@H]1C[C@H]2O[C@@](C)([C@@H]1OC)n1c3ccccc3c3c4c(c5c6ccccc6n2c5c31)C(=O)NC4 [Staurosporine] + CCNC(=O)c1noc(-c2cc(C(C)C)c(O)cc2O)c1-c1ccc(CN2CCOCC2)cc1 [Luminespib] (partner 0.01 µM)
The method, boiled down: as §1

Compound in experiment [2]: CN[C@@H]1C[C@H]2O[C@@](C)([C@@H]1OC)n1c3ccccc3c3c4c(c5c6ccccc6n2c5c31)C(=O)NC4 [Staurosporine] + C[C@@H](Oc1cc(-c2cnn(C3CCNCC3)c2)cnc1N)c1c(Cl)ccc(F)c1Cl [Crizotinib] (partner 1 µM)
In a few lines:
as §1

Compound in experiment [3]: O=c1[nH]cc(F)c(=O)[nH]1 [5-Fluorouracil] + CS(=O)(=O)CCNCc1ccc(-c2ccc3ncnc(Nc4ccc(OCc5cccc(F)c5)c(Cl)c4)c3c2)o1 [Lapatinib] (partner 2 µM)
The method, boiled down: as §1

In the case of RERF-LC-KJ, the relative viability with Sulindac + Phenformin (first compound 0.08 µM) came out at 0.43; in the experiment with Sulindac + Phenformin (first compound 0.253 µM), 0.418; with Sulindac + Phenformin (first compound 0.8 µM), 0.414; with Sulindac + Phenformin (first compound 2.53 µM), 0.455; with Sulindac + Phenformin (first compound 8 µM) it was 0.45; in experiment [1] (first compound 0.005 µM), 0.97. Further, the relative viability in experiment [1] (first compound 0.01581 µM) was 0.671; in experiment [1] (first compound 0.05 µM), 0.266; in experiment [1] (first compound 0.1581 µM) it was 0.222; in experiment [1] (first compound 0.5 µM), 0.237; in experiment [2] (first compound 0.005 µM), 0.823; in experiment [2] (first compound 0.01581 µM), 0.717. In addition, the relative viability in experiment [2] (first compound 0.05 µM) is 0.516; in experiment [2] (first compound 0.1581 µM) it was 0.223; in experiment [2] (first compound 0.5 µM), 0.244; in experiment [3] (first compound 0.02 µM), 0.903; in experiment [3] (first compound 0.2 µM), 0.824; in experiment [3] (first compound 0.6325 µM), 0.846. Also, the relative viability in experiment [3] (first compound 2 µM) amounted to 0.704.

With SK-LU-1, the relative viability in the experiment with Sulindac + Phenformin (first compound 0.08 µM) came out at 0.498; with Sulindac + Phenformin (first compound 0.253 µM) it was 0.567; in the experiment with Sulindac + Phenformin (first compound 0.8 µM) it was 0.444; with Sulindac + Phenformin (first compound 2.53 µM), 0.444; in the experiment with Sulindac + Phenformin (first compound 8 µM) it was 0.668; in experiment [1] (first compound 0.005 µM) it was 0.156. Also, the relative viability in experiment [1] (first compound 0.01581 µM) was 0.117; in experiment [1] (first compound 0.1581 µM), 0.117; in experiment [1] (first compound 0.5 µM), 0.108; in experiment [2] (first compound 0.005 µM), 0.372; in experiment [2] (first compound 0.01581 µM), 0.198; in experiment [2] (first compound 0.05 µM), 0.19. Besides, the relative viability in experiment [2] (first compound 0.1581 µM) stood at 0.169; in experiment [2] (first compound 0.5 µM), 0.161; in experiment [3] (first compound 0.02 µM), 0.904; in experiment [3] (first compound 0.2 µM), 0.956; in experiment [3] (first compound 0.6325 µM), 0.846; in experiment [3] (first compound 2 µM) it was 0.704.

Take SK-MES-1: the relative viability in the experiment with Sulindac + Phenformin (first compound 0.08 µM) is 0.798; in the experiment with Sulindac + Phenformin (first compound 0.253 µM) it was 0.77; with Sulindac + Phenformin (first compound 0.8 µM), 0.591; in the experiment with Sulindac + Phenformin (first compound 2.53 µM), 0.662; with Sulindac + Phenformin (first compound 8 µM), 0.73; in experiment [1] (first compound 0.01581 µM), 0.204. The relative viability was determined as 0.121 in experiment [1] (first compound 0.05 µM); 0.149 in experiment [1] (first compound 0.1581 µM); 0.124 in experiment [1] (first compound 0.5 µM); 0.718 in experiment [2] (first compound 0.005 µM); 0.582 in experiment [2] (first compound 0.01581 µM); 0.262 in experiment [2] (first compound 0.05 µM). The relative viability in experiment [2] (first compound 0.1581 µM) came to 0.184; in experiment [2] (first compound 0.5 µM), 0.11; in experiment [3] (first compound 0.02 µM), 0.471; in experiment [3] (first compound 0.2 µM), 0.494; in experiment [3] (first compound 0.6325 µM), 0.373; in experiment [3] (first compound 2 µM) it was 0.357.

Turning to SW 1573, the relative viability with Sulindac + Phenformin (first compound 0.08 µM) worked out at 0.458; in the experiment with Sulindac + Phenformin (first compound 0.253 µM), 0.365; in the experiment with Sulindac + Phenformin (first compound 2.53 µM) it was 0.388; with Sulindac + Phenformin (first compound 8 µM), 0.509; in experiment [1] (first compound 0.005 µM), 0.096; in experiment [1] (first compound 0.01581 µM), 0.0703. The relative viability was found to be 0.091 in experiment [1] (first compound 0.05 µM); 0.0676 in experiment [1] (first compound 0.1581 µM); 0.0574 in experiment [1] (first compound 0.5 µM); 0.678 in experiment [2] (first compound 0.005 µM); 0.583 in experiment [2] (first compound 0.01581 µM); 0.186 in experiment [2] (first compound 0.05 µM). Further, the relative viability amounted to 0.134 in experiment [2] (first compound 0.1581 µM); 0.119 in experiment [2] (first compound 0.5 µM); 1.09 in experiment [3] (first compound 0.02 µM); 1.32 in experiment [3] (first compound 0.2 µM); 0.546 in experiment [3] (first compound 0.6325 µM); 0.885 in experiment [3] (first compound 2 µM).
